These results are taken from US20260053931A1, “MDM2 TARGETING PROTACS” (THE WISTAR INSTITUTE OF ANATOMY AND BIOLOGY, priority 2023, published 2026).

Data set [1] relates to Mdm2-/-p53-/- sarcoma cells. Nature of the data set: Murine Mdm2-/-p53-/- sarcoma cells, MTT. Type of data set: cell-based, mouse. To be noted: MTT assay, 48 hrs. An excerpt: A-B. Murine Mdm2+/+p53-null sarcoma cells treated with Mdm2 PROTAC (YX-02-030), control YX-02-023 (−), or vehicle (DMSO). A. Western blots after 24 hrs (cleaved caspase 3, CC3. Mdm2^−/−p53^−/− fibroblasts were a control for the Western blot). B. Dose response curve (MTT assay, 48 hrs). C. Dose response curves of murine Mdm2^−/−p53^−/− sarcoma cells treated with Mdm2 PROTAC (YX-02-030), negative controls (−), a Bcl2/Bclx/Bclw inhibitor (+), or vehicle control (MTT assay, quadruplicate, 48 hrs- MTT assay, B-C graphed relative to DMSO).
(In general: Tetrazolium dyes change colour on reduction, which living cells bring about.)

The target in data set [2] is T1, Mdm2 (Homo sapiens, UniProt Q00987). Nature of the data set: Mdm2 HTRF binding assay (Table 2). To be noted: read-out: Mdm2 HTRF IC50. An excerpt:
An HTRF binding assay was developed using a biotinylated peptide containing the Mdm2-binding domain of p53 and a recombinant GST-tagged N-terminus of Mdm2 containing the p53-binding domain. HTRF is a proximity-based fluorescence energy transfer (FRET) assay that takes advantage of the unique time-resolved fluorescence of the lanthanide chelates, such as terbium and europium. HTRF IC50 values are provided for all key compounds (FIG. 13C, FIG. 19B, and Table 2).
On the technique in general: In TR-FRET formats the signal depends on donor and acceptor labels being close together.
Target sequence in this assay (Q00987 26-109 limits assumed): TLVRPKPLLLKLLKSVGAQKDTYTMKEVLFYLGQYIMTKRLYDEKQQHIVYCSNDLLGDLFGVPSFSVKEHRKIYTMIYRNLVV

In data set [3] the target is VHL (Homo sapiens, UniProt P40337). Nature of the data set: HTRF binding assay for VHL (Table 2). An excerpt: (§1) Biochemical assays in 384-well format have established to assess the binding of newly synthesized PROTACs to the appropriate E3 ligase using HTRF technology. In these assays an anti-HIS antibody conjugated to terbium was used as the donor fluor, and either a Cy5 labeled small molecule probe, or a biotinylated peptide that is bound to a streptavidin acceptor.
Chain of VHL (P40337 whole entry): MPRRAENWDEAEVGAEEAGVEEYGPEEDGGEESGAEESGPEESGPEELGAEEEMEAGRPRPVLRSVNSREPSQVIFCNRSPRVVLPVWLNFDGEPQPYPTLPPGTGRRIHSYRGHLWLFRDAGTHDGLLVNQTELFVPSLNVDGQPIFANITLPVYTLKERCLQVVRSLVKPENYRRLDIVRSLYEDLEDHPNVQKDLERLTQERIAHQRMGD
Chain of VHL (Q15370 whole entry partner): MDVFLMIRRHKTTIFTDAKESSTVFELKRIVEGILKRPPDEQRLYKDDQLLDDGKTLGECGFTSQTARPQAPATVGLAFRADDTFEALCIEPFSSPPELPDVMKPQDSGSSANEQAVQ
Chain of VHL (Q15369 whole entry partner): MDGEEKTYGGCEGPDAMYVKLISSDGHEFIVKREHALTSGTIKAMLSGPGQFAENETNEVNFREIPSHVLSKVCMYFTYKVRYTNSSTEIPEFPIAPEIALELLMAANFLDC

Data set [4] has as its system mut p53 MDA-MD-231 cells. The data set is described as follows: Live cell count with CellTag700 Stain in ICW format. The method, then:
Cells are seeded in 96 half area well plates (black clear bottom) and cultured overnight. Then they are treated with compounds, fixed with 4% paraformaldehyde for 20 minutes, and permeabilized in 0.1% Triton. They are then treated with the primary antibody and secondary antibody conjugated to IRDye800CW or treated with CellTag 700 Stain. The plates are then scanned on the OdysseyCLX and the data processed to provide a dose response curve.
Since genetic deletion of Mdm2 induces p73 and induces apoptosis in p53 mutant and deficient cancer cells, YX-02-030 and YX-02-228 were evaluated for their effect on cell viability. First, the CellTag700 Stain was utilized to count the number of live cells in the ICW format.

Data set [5] deals with MCF7. The data set is described as follows: Cytotoxicity to wild type p53 cells. The class given is cell-based. To be noted: Homo sapiens.
The target of data set [6] is T1, Mdm2. The data set is described as follows: In-Cell Western, mut p53 MDA-MB-231 cell line. To be noted: mutant p53 MDA-MB-231. Type of data set: cell-based. On the set-up: endogenous in cells; host or cells: MCF7 (A8); MDA-MB-231 (A9). The method, then:
(§2) Cells were seeded at decreasing cell number from 15K cells to 2K cells. The Mdm2 primary antibody was tested at 1:200 and 1:300 dilution. The secondary antibody conjugated to IRDye800CW was used with 1:800 dilution, and CellTag 700 Stain was used at 1:1000 dilution as manufacture recommended. The linearity of cell number versus signal was generated with Prism. The signal over background ratio was also calculated.
(§3) The potential PROTACs were evaluated in the wt p53 MCF7 cell line and in the mut p53 MDA-MB-231 cell line. Importantly these were compared to MD-224, which was recently reported to potently degrade Mdm2 in RS4; 11 leukemia cells (Li et al., 2019). Assay linearity was performed confirming a strong 4-fold signal to noise in the assay. A series of bi-functional molecules were then treated and evaluated for protein level in the assay over time from 2 h-48 h. […] In this wt p53 cancer cell line the stabilization of p53 (FIG. 15B), and subsequent p53-mediated transcriptional upregulation of Mdm2 make it difficult to observe degradation. […] These compounds were evaluated in the mutant p53 cancer cells. […] In this cell line, it takes approximately 16-24 h to detect the degradation. […] The difference in the molecules is that MD-224 utilizes a CRBN recruiting ligand.
Target sequence in this assay (Q00987 whole entry, the tested form may be a part): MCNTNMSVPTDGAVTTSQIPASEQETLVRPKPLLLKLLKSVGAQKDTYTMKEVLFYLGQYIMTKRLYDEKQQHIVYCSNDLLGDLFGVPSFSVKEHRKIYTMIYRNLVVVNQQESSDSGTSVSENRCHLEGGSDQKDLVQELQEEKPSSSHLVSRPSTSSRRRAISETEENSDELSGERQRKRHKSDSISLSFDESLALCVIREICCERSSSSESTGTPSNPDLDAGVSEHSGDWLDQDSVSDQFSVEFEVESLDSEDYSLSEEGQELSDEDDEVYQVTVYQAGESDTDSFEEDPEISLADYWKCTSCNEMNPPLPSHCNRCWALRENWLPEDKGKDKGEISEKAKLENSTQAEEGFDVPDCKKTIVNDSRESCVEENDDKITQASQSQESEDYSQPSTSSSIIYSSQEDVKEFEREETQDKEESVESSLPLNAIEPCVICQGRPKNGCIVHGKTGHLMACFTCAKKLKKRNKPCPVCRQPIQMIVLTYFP

The target of data set [7] is T1, Mdm2. The data set is described as follows: In-Cell Western, wt p53 MCF7 cell line. On the set-up: endogenous in cells; host or cells: MCF7 (A8); MDA-MB-231 (A9). To be noted: wt p53 MCF7, 2 h-48 h. Type of data set: cell-based. The procedure: as §2, §3
Target sequence in this assay (Q00987 whole entry, the tested form may be a part): as above
Data set [8] deals with T2, VHL complex (Homo sapiens, UniProt P40337).
T2 construct: purchased R&D systems E3-655-025
T2 sequence (P40337 whole entry): as the sequence (P40337 whole entry) above
T2 sequence (Q15370 whole entry partner): as the sequence (Q15370 whole entry partner) above
T2 sequence (Q15369 whole entry partner): as the sequence (Q15369 whole entry partner) above
T2 sequence (Q13617 whole entry partner): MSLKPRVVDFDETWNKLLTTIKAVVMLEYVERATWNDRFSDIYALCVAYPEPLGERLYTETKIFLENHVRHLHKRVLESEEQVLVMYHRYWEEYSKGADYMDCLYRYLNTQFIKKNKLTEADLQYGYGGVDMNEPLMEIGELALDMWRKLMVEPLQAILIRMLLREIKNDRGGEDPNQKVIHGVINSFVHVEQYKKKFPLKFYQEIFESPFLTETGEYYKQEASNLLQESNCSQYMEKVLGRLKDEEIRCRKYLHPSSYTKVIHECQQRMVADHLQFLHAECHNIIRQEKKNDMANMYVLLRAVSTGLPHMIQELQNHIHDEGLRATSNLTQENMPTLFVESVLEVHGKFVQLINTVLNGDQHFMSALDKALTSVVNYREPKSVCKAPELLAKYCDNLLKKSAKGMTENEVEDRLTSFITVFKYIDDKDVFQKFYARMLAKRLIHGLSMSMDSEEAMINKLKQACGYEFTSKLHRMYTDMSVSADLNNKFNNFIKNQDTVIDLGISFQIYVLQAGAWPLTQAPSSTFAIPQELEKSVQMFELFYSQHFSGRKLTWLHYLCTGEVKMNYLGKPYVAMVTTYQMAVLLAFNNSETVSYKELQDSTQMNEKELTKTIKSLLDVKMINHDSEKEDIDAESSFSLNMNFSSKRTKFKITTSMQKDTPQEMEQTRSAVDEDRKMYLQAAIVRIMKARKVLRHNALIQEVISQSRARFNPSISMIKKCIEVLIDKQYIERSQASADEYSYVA
T2 sequence (P62877 whole entry partner): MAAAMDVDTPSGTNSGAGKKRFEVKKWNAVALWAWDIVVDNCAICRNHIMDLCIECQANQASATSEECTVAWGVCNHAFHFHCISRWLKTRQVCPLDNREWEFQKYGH
The data set is described as follows: Inhibition of HIF-1α peptide binding to the VHL complex using HTRF (Table 3). To be noted: mean ± S.E.M. of three replications; read-out: VHL-HIFa peptide IC50. The procedure: Assays contained 2 nM of HIS-VHL complex (R&D systems, E3-655-025), 2 nM of biotin-hydroxyproline-HIF1α peptide (Biotin-[…] (SEQ ID NO: 2), X=hydroxyproline), 0.3 nM anti-HIS-Tb HTRF donor antibody and 4 nM streptavidin-d2 HTRF acceptor (PerkinElmer) in a final volume of 10 μL of 25 mM HEPES, pH 7.4, 150 mM NaCl, 5 mM DTT, 0.005% Tween20 in white low volume 384-well plates. Both HIS-VHL complex and biotin-HIF1α peptide were pre-incubated with their respective HTRF antibodies for 15 min. Test compounds were solubilized at 10 mM in DMSO and concentration series was added to the assay plate using the Echo 650 acoustic liquid handling system by direct dilution. The final amount of DMSO added to the assay was 100 nL […]. Compounds were pre-incubated with HIS-VHL complex before the addition of the biotin-HIF1α peptide. After a 2 hr incubation, the HTRF signal was measured using the ClarioStar plate reader (BMG Labtech). […] IC50 values were determined from nonlinear regression fits of a data to a four parameter dose-response equation using XLFit (IDBS). Data are the means±S.E.M. of three replications. The data is described in Table 3 above.

Data set [9] has as its target T3, human cereblon (CRBN) complex (Homo sapiens, UniProt Q96SW2).
T3 construct: purchased R & D systems
The data set is described as follows: HTRF binding assay for Cereblon (Table 2).
Text: as §1
Cereblon: Recombinant human cereblon (CRBN) complex, including CUL4A, RBX1, DDB1 and CRBN is purchased from R & D systems. This four-member protein complex has an N-terminal HIS tag on the CUL4A subunit. The CRBN complex is diluted in assay buffer containing anti-HIS-Tb Cryptate Gold (CisBio) and is added to low volume 384-well plates. Test compounds in 100% DMSO are added to the plates followed by the Cy5-labeled lenolidamide probe. After 1 hour the HTRF signal is measured on the Envision. Data are normalized to % inhibition. The typical signal-to-noise is 5:1. Bi-functional molecules containing the Cereblon ligands are tested in TABLE 2 (see YX-02-041).

T3 sequence (Q96SW2 whole entry): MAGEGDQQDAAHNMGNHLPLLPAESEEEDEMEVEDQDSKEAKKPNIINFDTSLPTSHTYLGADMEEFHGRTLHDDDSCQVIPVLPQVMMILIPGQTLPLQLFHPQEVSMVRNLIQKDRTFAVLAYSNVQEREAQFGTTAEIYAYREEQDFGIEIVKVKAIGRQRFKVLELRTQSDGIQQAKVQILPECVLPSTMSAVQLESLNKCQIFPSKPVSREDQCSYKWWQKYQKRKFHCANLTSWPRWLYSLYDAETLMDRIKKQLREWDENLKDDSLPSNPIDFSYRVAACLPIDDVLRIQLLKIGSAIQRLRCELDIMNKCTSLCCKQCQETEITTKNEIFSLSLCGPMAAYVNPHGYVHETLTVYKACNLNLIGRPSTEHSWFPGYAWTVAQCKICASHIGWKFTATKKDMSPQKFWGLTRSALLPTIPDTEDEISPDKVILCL
T3 sequence (Q16531 whole entry partner): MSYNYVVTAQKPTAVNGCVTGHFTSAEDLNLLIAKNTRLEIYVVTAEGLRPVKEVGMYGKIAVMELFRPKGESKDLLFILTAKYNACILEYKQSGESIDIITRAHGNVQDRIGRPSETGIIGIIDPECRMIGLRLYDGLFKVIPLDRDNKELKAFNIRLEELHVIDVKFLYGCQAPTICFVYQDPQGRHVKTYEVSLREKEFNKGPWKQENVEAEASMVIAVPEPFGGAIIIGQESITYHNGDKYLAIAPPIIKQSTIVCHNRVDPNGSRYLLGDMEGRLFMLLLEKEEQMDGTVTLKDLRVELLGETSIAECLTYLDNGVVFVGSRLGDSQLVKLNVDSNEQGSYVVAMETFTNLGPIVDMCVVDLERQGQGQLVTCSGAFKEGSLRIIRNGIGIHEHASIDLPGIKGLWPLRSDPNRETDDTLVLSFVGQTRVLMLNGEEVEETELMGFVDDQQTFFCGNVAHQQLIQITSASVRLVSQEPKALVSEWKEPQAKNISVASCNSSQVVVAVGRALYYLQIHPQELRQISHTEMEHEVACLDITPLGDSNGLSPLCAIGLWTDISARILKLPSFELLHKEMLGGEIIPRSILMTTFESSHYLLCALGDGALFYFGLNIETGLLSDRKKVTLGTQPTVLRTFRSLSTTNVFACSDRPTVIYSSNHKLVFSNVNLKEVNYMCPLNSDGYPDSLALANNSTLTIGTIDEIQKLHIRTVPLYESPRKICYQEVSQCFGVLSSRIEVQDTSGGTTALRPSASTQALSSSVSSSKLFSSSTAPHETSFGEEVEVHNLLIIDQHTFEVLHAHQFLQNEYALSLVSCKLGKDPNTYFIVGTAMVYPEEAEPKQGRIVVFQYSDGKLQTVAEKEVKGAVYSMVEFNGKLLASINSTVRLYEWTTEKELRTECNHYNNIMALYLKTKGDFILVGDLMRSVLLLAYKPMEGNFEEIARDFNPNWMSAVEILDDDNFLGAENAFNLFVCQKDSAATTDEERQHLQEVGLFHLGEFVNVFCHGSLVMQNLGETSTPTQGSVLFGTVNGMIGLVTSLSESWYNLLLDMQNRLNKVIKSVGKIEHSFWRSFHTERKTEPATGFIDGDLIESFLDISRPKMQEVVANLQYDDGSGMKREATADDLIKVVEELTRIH
T3 sequence (Q13619 whole entry partner): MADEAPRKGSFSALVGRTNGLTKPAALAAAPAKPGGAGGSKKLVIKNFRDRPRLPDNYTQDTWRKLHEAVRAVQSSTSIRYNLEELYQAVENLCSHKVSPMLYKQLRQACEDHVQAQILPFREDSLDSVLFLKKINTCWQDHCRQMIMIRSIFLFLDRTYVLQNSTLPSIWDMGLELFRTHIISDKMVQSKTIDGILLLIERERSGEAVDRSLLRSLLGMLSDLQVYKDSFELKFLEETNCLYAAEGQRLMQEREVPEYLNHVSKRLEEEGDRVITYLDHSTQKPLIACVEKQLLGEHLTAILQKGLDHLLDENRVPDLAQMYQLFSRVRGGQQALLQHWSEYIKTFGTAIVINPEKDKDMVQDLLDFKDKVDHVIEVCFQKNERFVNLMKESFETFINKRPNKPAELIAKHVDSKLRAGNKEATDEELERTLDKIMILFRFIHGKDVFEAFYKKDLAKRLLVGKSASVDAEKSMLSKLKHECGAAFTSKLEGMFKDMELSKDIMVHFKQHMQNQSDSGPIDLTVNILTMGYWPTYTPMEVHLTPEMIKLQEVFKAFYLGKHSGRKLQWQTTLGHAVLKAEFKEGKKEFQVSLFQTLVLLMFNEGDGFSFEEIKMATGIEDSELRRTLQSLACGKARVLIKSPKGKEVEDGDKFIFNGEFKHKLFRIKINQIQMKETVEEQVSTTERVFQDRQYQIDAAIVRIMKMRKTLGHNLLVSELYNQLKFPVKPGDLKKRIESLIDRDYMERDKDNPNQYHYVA
T3 sequence (P62877 whole entry partner): as the sequence (P62877 whole entry partner) above

For the molecule `CC1(C)CCC(c2ccc(Cl)cc2)=C(CN2CCN(c3ccc(C(=O)NS(=O)(=O)c4ccc(N[C@H](CCN5CCOCC5)CSc5ccccc5)c(S(=O)(=O)C(F)(F)F)c4)cc3)CC2)C1` [ABT-263/Navitoclax, Navitoclax, reference compound], in [1], the “response of Mdm2-/-p53-/- sarcoma cells” value is reported as “responsive”.

`CCOc1cc(C(C)(C)C)ccc1C1=N[C@@](C)(c2ccc(Cl)cc2)[C@@](C)(c2ccc(Cl)cc2)N1C(=O)N1CCN(CC(=O)NCCCCNC(=O)COc2cccc3c2C(=O)N(C2CCC(=O)NC2=O)C3=O)CC1` (mixture of isomers) [YX-02-041, 2-(4-((4S,5R)-2-(4-(tert-butyl)-2-ethoxyphenyl)-4,5-bis(4-chlorophenyl)-4,5-dimethyl-4,5-dihydro-1H-imidazole-1-carbonyl)piperazin-1-yl)-N-(4-(2-((2-(2,6-dioxopiperidin-3-yl)-1,3-dioxoisoindolin-4-yl)oxy)acetamido)butyl)acetamide]: the IC50 (usually the concentration that inhibits the measured activity by half) was 0.003 µM in data set [2], more than 10 µM in data set [3] and approximately 20 µM in data set [5]. For the same molecule, the “cytotoxicity to mutant p53 cells” value in data set [4] (other studies, compared with MCF7) was “much less cytotoxic”. The Mdm2 degradation entry in data set [6] was “did not provide robust degradation”.

For the molecule `O=C1CCC(N2Cc3c(C#CCCCNC(=O)c4ccc(NC(=O)[C@@H]5NC6(CCCCC6)[C@@]6(C(=O)Nc7cc(Cl)ccc76)[C@H]5c5cccc(Cl)c5F)cc4)cccc3C2=O)C(=O)N1` (stereo partly drawn) [MD-224, reference compound], the “cytotoxic effect, number of live cells” value in data set [4] (after 24 h and 48 h treatment) is given as “no cytotoxic effect”. The Mdm2 protein level entry in [7] is “modest degradation”. Besides, the Mdm2 degradation entry in data set [6] was “did not reduce Mdm2 protein level”.

`COc1ccc(C2=N[C@@H](c3ccc(Cl)cc3)[C@@H](c3ccc(Cl)cc3)N2C(=O)N2CCNC(=O)C2)c(OC(C)C)c1` [Nutlin-3, reference compound]: in [8], the half-inhibitory concentration (IC50) is more than 10 µM.

As for `CCOc1cc(C(C)(C)C)ccc1C1=NC(C)(c2ccc(Cl)cc2)C(C)(c2ccc(Cl)cc2)N1C(=O)N1CCN(CC(=O)N[C@H](C(=O)N2C[C@H](O)C[C@H]2C(=O)NCc2ccc(-c3scnc3C)cc2)C(C)(C)C)CC1` (stereo in doubt) [YX-02-230, 1-(2-(2-(4-((4S,5R)-2-(4-(tert-butyl)-2-ethoxyphenyl)-4,5-bis(4-chlorophenyl)-4,5-dimethyl-4,5-dihydro-1H-imidazole-1-carbonyl)piperazin-1-yl)acetamido)-3,3-dimethylbutanoyl)-4-hydroxy-N-(4-(4-methylthiazol-5-yl)benzyl)pyrrolidine-2-carboxamide], the half-maximal inhibitory concentration (IC50) in data set [2] is 0.018 µM; in [9] it was more than 10 µM.
